Results from patent publication US8796259B2, “N3-heteroaryl substituted triazoles and N5-heteroaryl substituted triazoles useful as axl inhibitors” (Rigel Pharmaceuticals, Inc., priority 2006, dated 2014).

Target: T1, Axl (Homo sapiens, UniProt P30530)
T1 construct: endogenous in cells; host or cells: HeLa cells
T1 sequence (P30530 26-894): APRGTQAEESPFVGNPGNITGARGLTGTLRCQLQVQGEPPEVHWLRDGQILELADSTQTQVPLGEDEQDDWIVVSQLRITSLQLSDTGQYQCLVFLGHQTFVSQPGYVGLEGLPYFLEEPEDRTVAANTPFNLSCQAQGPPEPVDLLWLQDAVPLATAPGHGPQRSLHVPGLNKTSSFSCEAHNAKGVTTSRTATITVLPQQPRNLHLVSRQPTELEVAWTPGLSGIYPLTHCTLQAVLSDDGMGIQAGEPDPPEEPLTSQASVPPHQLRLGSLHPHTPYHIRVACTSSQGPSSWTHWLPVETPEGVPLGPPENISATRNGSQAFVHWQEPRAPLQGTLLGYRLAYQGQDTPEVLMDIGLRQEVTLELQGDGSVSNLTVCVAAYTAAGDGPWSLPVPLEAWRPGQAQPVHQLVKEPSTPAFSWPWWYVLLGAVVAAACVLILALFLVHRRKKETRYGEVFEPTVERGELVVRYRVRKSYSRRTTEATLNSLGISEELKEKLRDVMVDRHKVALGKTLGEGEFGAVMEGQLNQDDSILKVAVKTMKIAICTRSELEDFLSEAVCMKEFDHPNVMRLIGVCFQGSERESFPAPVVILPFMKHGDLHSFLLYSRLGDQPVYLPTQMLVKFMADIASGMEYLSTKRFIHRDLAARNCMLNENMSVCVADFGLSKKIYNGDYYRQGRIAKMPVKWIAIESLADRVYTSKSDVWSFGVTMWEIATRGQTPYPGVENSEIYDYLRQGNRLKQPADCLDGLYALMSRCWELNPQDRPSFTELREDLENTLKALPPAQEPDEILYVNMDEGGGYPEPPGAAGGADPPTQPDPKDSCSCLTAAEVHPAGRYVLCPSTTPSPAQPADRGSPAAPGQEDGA
Experiment: Phospho-Akt in-cell Western assay (inhibition of Axl activity, Axl-antibody cross-linking stimulation)
Assay type: cell-based
Conditions: Hela cells, phospho-Akt readout; compounds of formula (Ia), Table 1
How it was run: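 HeLa cells on poly-L-lysine were starved 24 h in 0.5% FCS/DMEM with 500 ng/mL Axl/Fc, pre-treated with compound 1 h at 37 °C, then stimulated 5 min by cross-linked mouse anti-Axl/biotin anti-mouse antibody clusters. After formaldehyde fixation, phospho-Akt was detected by rabbit anti-phospho-Akt and HRP secondary with chemiluminescence read-out.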

Row | IC50 | SMILES
1 | < 1 µM | Cc1csc2c(-n3nc(Nc4cnc5c(c4)C4CC(N6CCCC6)CC4C5)nc3N)nc(Cl)nc12 (stereo not shown) [compound 64, 1-(2-chloro-7-methylthieno [3,2-d]pyrimidin-4-yl)-N^3-(6-(pyrrolidin-1-yl)-4b,5,6,7,7a,8-hexahydro-pentaleno[2,1-b]pyridin-3-yl)-1H-1,2,4-triazole-3,5-diamine]
2 | < 1 µM | Cc1csc2c(-n3nc(Nc4ccc(N5CCN(C6CC6)CC5)nc4)nc3N)nc(Cl)nc12 [compound 68, 1-(2-chloro-7-methylthieno [3,2-d]pyrimidin-4-yl)-N^3-(6-(4-cyclopropyl-piperazin-1-yl)pyridin-3-yl)-1H-1,2,4-triazole-3,5-diamine]
3 | < 1 µM | Cc1cc(Nc2nc(N)n(-c3nc(Cl)nc4c(C)csc34)n2)cnc1N1CCN(C2CC3CCC2C3)CC1 (stereo not shown) [compound 71, 1-(2-chloro-7-methylthienò [3,2-d]pyrimidine-4-yl)-N^3-(5-methyl-6-(4-bicyclo[2.2.1]heptan-2-ylpiperazin-1-yl)pyridine-3-yl)-1H-1,2,4-triazole-3,5-diamine]
4 | < 1 µM | Cc1cc(Nc2nc(N)n(-c3ncnc4c(C)csc34)n2)cnc1N1CCN(C2CC3CCC2C3)CC1 (stereo not shown) [compound 72, 1-(7-methylthieno [3,2-d]pyrimidine-4-yl)-N^3-(5-methyl-6-(4-bicyclo [2.2.1]heptan-2-ylpiperazin-1-yl)pyridine-3-yl)-1H-1,2,4-triazole-3,5-diamine]
5 | < 1 µM | Cc1csc2c(-n3nc(Nc4ccc(N5CCN([C@H]6C[C@@H]7CC[C@H]6C7)CC5)nc4)nc3N)ncnc12 [compound 73, 1-(7-methylthieno [3,2-d]pyrimidine-4-yl)-N^3-(6-(4-((1S,2S,4R)-bicyclo[2.2.1]heptan-2-yl)piperazin-1-yl)pyridin-3-yl)-1H-1,2,4-triazole-3,5-diamine]
6 | < 1 µM | Cc1csc2c(-n3nc(Nc4ccc(C5CCN(C6CC7CCC6C7)CC5)nc4)nc3N)nc(Cl)nc12 (stereo not shown) [compound 83, 1-(2-chloro-7-methylthieno [3,2-d]pyrimidine-4-yl)-N^3-(6-(1-bicyclo[2.2.1]heptan-2-ylpiperidin-4-yl)pyridine-3-yl)-1H-1,2,4-triazole-3,5-diamine]
7 | < 1 µM | Cc1csc2c(-n3nc(Nc4cnc5c(c4)CC(NC4CCN(C)CC4)CC5)nc3N)ncnc12 (stereo not shown) [compound 84, 1-(7-methylthieno [3,2-d]pyrimidin-4-yl)-N^3-(6-(1-methyl-piperidin-4-ylamino)-5,6,7,8-tetrahydro-quinolin-3-yl)-1H-1,2,4-triazole-3,5-diamine]
8 | < 1 µM | Cc1csc2c(-n3nc(Nc4cnc5c(c4)CC(N4CCCC4)CC5)nc3N)ncnc12 (stereo not shown) [compound 85, 1-(7-methylthieno [3,2-d]pyrimidin-4-yl)-N^3-(6-pyrrolidin-1-yl-5,6,7,8-tetrahydro-quinolin-3-yl)-1H-1,2,4-triazole-3,5-diamine]
9 | < 1 µM | Cc1csc2c(-n3nc(Nc4ccc(C5CCN(C6CC7CCC6C7)CC5)nc4)nc3N)ncnc12 (stereo not shown) [compound 88, 1-(7-methylthieno [3,2-d]pyrimidine-4-yl)-N^3-(6-(1-bicyclo [2.2.1]heptan-2-ylpiperidin-4-yl)pyridine-3-yl)-1H-1,2,4-triazole-3,5-diamine]
10 | < 1 µM | Cc1csc2c(-n3nc(Nc4ccc(N5CCN(CC6CC6)CC5)nc4)nc3N)ncnc12 [compound 89, 1-(7-methylthieno [3,2-d]pyrimidine-4-yl)-N^3-(6-(4-(cyclopropyl-methyl)piperazin-1-yl)pyridine-3-yl)-1H-1,2,4-triazole-3,5-diamine]

Second part, the molecule before the results:

Row | SMILES | IC50
11 | COc1cc2ncnc(-n3nc(Nc4cnc(N5CCC(CN6CCCCC6)CC5)nc4)nc3N)c2cc1OC [compound 63, 1-(6,7-dimethoxy-quinazoline-4-yl)-N^3-(2-(4-piperidin-1-ylmethyl-piperidin-1-yl)pyrimidin-5-yl)-1H-1,2,4-triazole-3,5-diamine] | 1 to 10 µM
12 | COc1cc2ncnc(-n3nc(Nc4ccc(C=CCN5CCC(N6CCN(C)CC6)CC5)nc4)nc3N)c2cc1OC [compound 65, 1-(6,7-dimethoxy-quinazoline-4-yl)-N^3-(6-(3-(4-(4-methyl-piperazin-1-yl)piperidin-1-yl)propenyl)pyridin-3-yl)-1H-1,2,4-triazole-3,5-diamine] | < 1 µM
13 | Cc1csc2c(-n3nc(Nc4cnc5c(c4)CC(N4CCN(C)CC4)CC5)nc3N)nc(Cl)nc12 (stereo not shown) [compound 66, 1-(2-chloro-7-methylthieno [3,2-d]pyrimidin-4-yl)-N^3-(6-(4-methyl-piperazin-1-yl)-5,6,7,8-tetrahydro-quinolin-3-yl)-1H-1,2,4-triazole-3,5-diamine] | < 1 µM
14 | COc1cc2ncnc(-n3nc(Nc4ccc(C=CCN5CCC(N6CCCCC6)CC5)nc4)nc3N)c2cc1OC [compound 67, 1-(6,7-dimethoxy-quinazoline-4-yl)-N^3-(6-(3-(4-piperidin-1-ylpiperidin-1-yl)propenyl)pyridin-3-yl)-1H-1,2,4-triazole-3,5-diamine] | < 1 µM
15 | COc1cc2ncnc(-n3nc(Nc4ccc(C=CCN5CCC(N(C)C)CC5)nc4)nc3N)c2cc1OC [compound 69, 1-(6,7-dimethoxy-quinazoline-4-yl)-N^3-(6-(3-(4-dimethyl-amino-piperidin-1-yl)propenyl)pyridin-3-yl)-1H-1,2,4-triazole-3,5-diamine] | < 1 µM
16 | Cc1csc2c(-n3nc(Nc4cnc5c(c4)CC(NC4CCCC4)CC5)nc3N)nc(Cl)nc12 (stereo not shown) [compound 70, 1-(2-chloro-7-methylthieno [3,2-d]pyrimidin-4-yl)-N^3-(6-cyclopentyl-amino-5,6,7,8-tetrahydro-quinolin-3-yl)-1H-1,2,4-triazole-3,5-diamine] | < 1 µM
17 | Cc1csc2c(-n3nc(Nc4cnc5c(c4)CCC(N4CCCC4)CC5)nc3N)nc(Cl)nc12 (stereo not shown) [compound 77, 1-(2-chloro-7-methylthieno [3,2-d]pyrimidine-4-yl)-N^3-(7-(pyrrolidin-1-yl)-6,7,8,9-tetrahydro-5H-cyclohepta[b]pyridin-3-yl)-1H-1,2,4-triazole-3,5-diamine] | < 1 µM
18 | CCN(CC)C1CCN(CC=Cc2ccc(Nc3nc(N)n(-c4ncnc5cc(OC)c(OC)cc45)n3)cn2)C1 (stereo not shown) [compound 78, 1-(6,7-dimethoxy-quinazoline-4-yl)-N^3-(6-(3-(3-(diethylamino)pyrrolidin-1-yl)propenyl)pyridin-3-yl)-1H-1,2,4-triazole-3,5-diamine] | < 1 µM
19 | COc1cc2ncnc(-n3nc(Nc4ccc(C=CCN5CCC(N(C)C)C5)nc4)nc3N)c2cc1OC (stereo not shown) [compound 79, 1-(6,7-dimethoxy-quinazoline-4-yl)-N^3-(6-(3-(3-(dimethyl-amino)pyrrolidin-1-yl)propenyl)pyridin-3-yl)-1H-1,2,4-triazole-3,5-diamine] | < 1 µM
20 | COc1cc2ncnc(-n3nc(Nc4ccc(C=CCN5CCCCC5)nc4)nc3N)c2cc1OC [compound 80] | < 1 µM
21 | COc1cc2ncnc(-n3nc(Nc4ccc(C=CCN5CCC(N6CCCC6)CC5)nc4)nc3N)c2cc1OC [compound 81, 1-(6,7-dimethoxy-quinazoline-4-yl)-N^3-(6-(3-(4-pyrrolidin-1-ylpiperidin-1-yl)propenyl)pyridin-3-yl)-1H-1,2,4-triazole-3,5-diamine] | < 1 µM
22 | Cc1csc2c(-n3nc(Nc4cnc5c(c4)CC(N4CCCC4)CC5)nc3N)nc(Cl)nc12 (stereo not shown) [compound 82, 1-(2-chloro-7-methylthieno [3,2-d]pyrimidin-4-yl)-N^3-(6-pyrrolidin-1-yl-5,6,7,8-tetrahydro-quinolin-3-yl)-1H-1,2,4-triazole-3,5-diamine] | < 1 µM
23 | Cc1csc2c(-n3nc(Nc4cnc5c(c4)CN(C4CCN(C)CC4)CC5)nc3N)nc(Cl)nc12 [compound 86, 1-(2-chloro-7-methylthieno [3,2-d]pyrimidine-4-yl)-N^3-(6-(1-methyl-piperidin-4-yl)-5,6,7,8-tetrahydro-1,6-naphthyridin-3-yl)-1H-1,2,4-triazole-3,5-diamine] | < 1 µM
24 | Cc1csc2c(-n3nc(Nc4cnc5c(c4)CN(C(=O)C4CCNCC4)CC5)nc3N)nc(Cl)nc12 [compound 87, 1-(2-chloro-7-methylthieno [3,2-d]pyrimidin-4-yl)-N^3-(6-(piperidin-4-ylcarbonyl)-5,6,7,8-tetrahydro-1,6-naphthyridin-3-yl)-1H-1,2,4-triazole-3,5-diamine] | > 20 µM
25 | COc1cc2ncnc(-n3nc(Nc4ccc(C=CCN5CCN(C6CCCC6)CC5)nc4)nc3N)c2cc1OC [compound 90, 1-(6,7-dimethoxy-quinazoline-4-yl)-N^3-(6-(3-(4-cyclopentyl-piperazin-1-yl)propenyl)pyridin-3-yl)-1H-1,2,4-triazole-3,5-diamine] | < 1 µM
